Columns and labels:
[1] = test system: dermatological inflammatory diseases and other inflammatory diseases or syndrome; details: 10 mM, topical or gargle or spray administration
psoriasis = experiment: Spray of 10 mM NH4Cl solution on psoriasis sites of patient A; format: in vivo, human; details: 10 mM NH4Cl spray once every 2 days
From the text: Photos were taken before and after treatments in indicated time points. FIGS. 1, 2, 3, 4 and 5 illustrated the results of the above-identified protocol used in this study.

furuncles = experiment: Topical NH4Cl in skin moisture lotion to treat furuncles; format: in vivo, human; details: 10 mM in skin moisture lotion, 3 times a day, after 2-3 days
pain of body = experiment: Topical NH4Cl in skin moisture lotion to reduce pain of body; format: in vivo, human; details: 10 mM in skin moisture lotion, once a day, after 2-3 days
subcutaneous masses = experiment: Topical NH4Cl in skin moisture lotion to treat subcutaneous masses; format: in vivo, human; details: 10 mM in skin moisture lotion, once a day, after 2-3 days
acnes or furuncles = experiment: Topical NH4Cl lotion on face to prevent acnes or furuncles; format: in vivo, human; details: NH4+ 10 mM in skin moisture lotion, topical on face once a week

Compound | effects for dermatological inflammatory diseases (eczema, acnes, psoriasis, furuncles) and other inflammatory diseases or syndrome [1] | psoriasis on one hand (psoriasis; 2 months, patient A (FIG. 3)) | psoriasis on both elbows (psoriasis; 3 months, patient A (FIG. 2)) | psoriasis on the back of the body (psoriasis; 3 months, patient A (FIG. 4)) | psoriasis on both hands (psoriasis; 3 months, patient A with psoriasis for 3 years (FIG. 1)) | appearance of psoriasis on feet and both knees (psoriasis; 4 months, patient A (FIG. 5)) | furuncles (pain, red, nodule) (furuncles) | pain of body (pain of body) | subcutaneous masses (subcutaneous masses) | prevention of acnes or furuncles (acnes or furuncles)
CC(=O)O.N [ammonium acetate] | excellent effects | – | – | – | – | – | – | – | – | –
N.N.O=S(=O)(O)O [ammonium sulfate] | excellent effects | – | – | – | – | – | – | – | – | –
Cl.N [NH4Cl, ammonium chloride] | excellent effects | cures psoriasis | cures psoriasis | cure psoriasis | cures psoriasis | improve appearance of psoriasis | furuncles were cured | completed stopped or significantly reduced | masses less than 1 cm would be disappeared | could prevent acnes or furuncles

— US20150072026A1, “Anti-inflammatory ion and uses thereof” (Yunyuan Li, priority 2013, published 2015)
